The NIST ThermoML archive (doi:10.1021/je200415u)

Assay: mn = molality of the nth substance listed, in mol/kg
Settings: 101 kPa, Liquid, METLER TOLEDO SevenEasy conductivity meter

O=[N+]([O-])[O-].O=[N+]([O-])[O-].O=[N+]([O-])[O-].[Nd+3] [neodymium(III) nitrate] + O
electrical conductivity [S/m]
Settings | m1 = 0.522 | m1 = 1.021 | m1 = 1.555 | m1 = 2.093 | m1 = 3.086 | m1 = 4.124 | m1 = 4.297
293.15 K | 6.78 | 8.78 | 8.65 | 7.44 | 4.708 | 2.521 | 2.219
298.15 K | 7.48 | 9.66 | 9.545 | 8.27 | 5.329 | 2.931 | 2.623
308.15 K | 8.97 | 11.5 | 11.44 | 10.01 | 6.65 | 3.821 | 3.422

O=[N+]([O-])[O-].O=[N+]([O-])[O-].O=[N+]([O-])[O-].[Ce+3] [cerium nitrate] + O
electrical conductivity [S/m]
Settings | m1 = 0.5112 | m1 = 1.031 | m1 = 1.555 | m1 = 1.997 | m1 = 3.131 | m1 = 3.968 | m1 = 4.462
293.15 K | 6.618 | 8.513 | 8.217 | 7.244 | 4.309 | 2.67 | 1.912
298.15 K | 7.4 | 9.446 | 9.15 | 8.103 | 4.9 | 3.1 | 2.244
308.15 K | 8.78 | 11.24 | 10.9 | 9.78 | 6.136 | 4.018 | 2.96

O=[N+]([O-])[O-].O=[N+]([O-])[O-].O=[N+]([O-])[O-].[Y+3] [yttrium nitrate] + O
electrical conductivity [S/m]
Settings | m1 = 0.4989 | m1 = 0.9965 | m1 = 1.497 | m1 = 1.982 | m1 = 2.947 | m1 = 3.945 | m1 = 4.957
293.15 K | 7.202 | 10.03 | 10.36 | 9.433 | 6.35 | 3.68 | 1.89
298.15 K | 8.339 | 11.6 | 12 | 10.9 | 7.421 | 4.4 | 2.28
308.15 K | 9.922 | 13.7 | 14.17 | 13.03 | 9.08 | 5.611 | 3.08
